Test results as given in ChEMBL document CHEMBL1149386, “Design and synthesis of 5-aryl-pyridone-carboxamides as inhibitors of anaplastic lymphoma kinase” (J Med Chem, 2006).
Each block holds one molecule with its values, some of them ahead of it.

How the values were obtained:
[1] = biological target: ALK tyrosine kinase receptor (Homo sapiens, UniProt Q9UM73); experiment: Inhibitory activity against ALK
Insulin receptor = Insulin receptor (Homo sapiens, UniProt P06213); experiment: Inhibitory activity against IRK
Chain of Insulin receptor (P06213 28-758 limits assumed): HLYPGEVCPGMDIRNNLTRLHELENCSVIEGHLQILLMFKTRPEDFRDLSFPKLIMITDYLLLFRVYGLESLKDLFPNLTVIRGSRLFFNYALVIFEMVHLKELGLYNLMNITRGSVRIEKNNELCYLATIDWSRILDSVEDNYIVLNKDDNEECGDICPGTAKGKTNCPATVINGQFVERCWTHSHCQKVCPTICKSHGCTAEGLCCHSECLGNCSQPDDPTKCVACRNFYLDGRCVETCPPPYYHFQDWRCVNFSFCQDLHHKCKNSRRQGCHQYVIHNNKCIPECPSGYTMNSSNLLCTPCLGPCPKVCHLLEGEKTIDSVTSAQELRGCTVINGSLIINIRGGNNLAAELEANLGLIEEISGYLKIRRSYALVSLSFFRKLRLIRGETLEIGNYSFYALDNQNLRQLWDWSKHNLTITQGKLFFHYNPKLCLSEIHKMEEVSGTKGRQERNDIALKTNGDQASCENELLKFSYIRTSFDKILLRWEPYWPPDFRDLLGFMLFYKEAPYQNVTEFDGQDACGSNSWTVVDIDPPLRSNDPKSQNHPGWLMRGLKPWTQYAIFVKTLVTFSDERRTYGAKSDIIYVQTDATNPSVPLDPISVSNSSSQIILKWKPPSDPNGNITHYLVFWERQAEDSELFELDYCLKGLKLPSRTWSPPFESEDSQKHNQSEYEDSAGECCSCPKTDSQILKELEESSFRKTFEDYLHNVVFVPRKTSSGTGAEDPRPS
Chain of Insulin receptor (P06213 763-1382 limits assumed): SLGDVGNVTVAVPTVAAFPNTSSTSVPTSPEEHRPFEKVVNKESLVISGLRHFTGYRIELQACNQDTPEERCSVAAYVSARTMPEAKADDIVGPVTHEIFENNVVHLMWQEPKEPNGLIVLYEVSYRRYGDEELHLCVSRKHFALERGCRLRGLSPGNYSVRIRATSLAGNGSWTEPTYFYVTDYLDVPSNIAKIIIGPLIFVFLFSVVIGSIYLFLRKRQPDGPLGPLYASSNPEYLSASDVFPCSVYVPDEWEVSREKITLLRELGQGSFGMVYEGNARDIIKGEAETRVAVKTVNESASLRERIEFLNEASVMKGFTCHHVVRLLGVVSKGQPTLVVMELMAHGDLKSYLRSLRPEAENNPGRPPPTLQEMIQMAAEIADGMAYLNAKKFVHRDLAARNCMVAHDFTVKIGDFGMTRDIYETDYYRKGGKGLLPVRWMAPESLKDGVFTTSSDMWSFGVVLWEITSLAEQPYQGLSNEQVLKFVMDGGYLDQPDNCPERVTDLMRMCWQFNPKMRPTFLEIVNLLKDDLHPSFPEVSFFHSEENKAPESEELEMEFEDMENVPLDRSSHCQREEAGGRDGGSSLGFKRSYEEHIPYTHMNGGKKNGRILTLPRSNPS

BaF3 = experiment: Antiproliferative activity against parental interleukin-3-dependent BaF3 cell line; type: functional, cell-based; conditions: Mus musculus
Jurkat = experiment: Antiproliferative activity against human T-cell leukemia Jurkat cell line; type: functional, cell-based
[2] = biological target: T1, Receptor-type tyrosine-protein kinase FLT3 (Homo sapiens, UniProt P36888); experiment: Inhibitory activity against Flt3
T1 sequence (P36888 whole entry): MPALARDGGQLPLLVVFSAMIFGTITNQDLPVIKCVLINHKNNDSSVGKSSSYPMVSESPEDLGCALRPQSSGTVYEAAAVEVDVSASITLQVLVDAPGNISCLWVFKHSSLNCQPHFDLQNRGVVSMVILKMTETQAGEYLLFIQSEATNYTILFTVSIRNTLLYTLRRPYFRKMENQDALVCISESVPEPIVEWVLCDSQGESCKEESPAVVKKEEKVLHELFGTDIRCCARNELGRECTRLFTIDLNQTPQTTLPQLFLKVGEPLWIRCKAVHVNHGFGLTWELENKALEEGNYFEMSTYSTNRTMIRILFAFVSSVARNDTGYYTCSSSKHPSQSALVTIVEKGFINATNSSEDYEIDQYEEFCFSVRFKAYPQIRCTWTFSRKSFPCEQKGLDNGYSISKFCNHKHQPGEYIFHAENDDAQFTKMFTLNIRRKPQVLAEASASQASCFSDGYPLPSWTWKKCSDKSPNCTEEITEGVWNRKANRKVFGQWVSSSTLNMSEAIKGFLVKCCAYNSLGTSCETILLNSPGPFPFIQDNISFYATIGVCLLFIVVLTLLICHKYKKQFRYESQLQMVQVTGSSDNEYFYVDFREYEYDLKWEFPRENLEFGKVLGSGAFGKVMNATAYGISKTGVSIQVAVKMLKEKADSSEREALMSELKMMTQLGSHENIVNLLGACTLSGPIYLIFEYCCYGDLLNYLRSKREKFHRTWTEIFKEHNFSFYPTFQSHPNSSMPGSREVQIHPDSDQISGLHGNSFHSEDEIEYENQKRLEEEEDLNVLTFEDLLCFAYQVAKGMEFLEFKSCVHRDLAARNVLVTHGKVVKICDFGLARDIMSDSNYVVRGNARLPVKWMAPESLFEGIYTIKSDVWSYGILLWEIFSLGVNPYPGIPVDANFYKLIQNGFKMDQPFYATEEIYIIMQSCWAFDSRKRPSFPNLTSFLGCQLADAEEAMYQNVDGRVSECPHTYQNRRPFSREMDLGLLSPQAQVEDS

[3] = biological target: Tyrosine-protein kinase ABL1 (Homo sapiens, UniProt P00519); experiment: Inhibitory activity against Abl
Chain of Tyrosine-protein kinase ABL1 (P00519 whole entry): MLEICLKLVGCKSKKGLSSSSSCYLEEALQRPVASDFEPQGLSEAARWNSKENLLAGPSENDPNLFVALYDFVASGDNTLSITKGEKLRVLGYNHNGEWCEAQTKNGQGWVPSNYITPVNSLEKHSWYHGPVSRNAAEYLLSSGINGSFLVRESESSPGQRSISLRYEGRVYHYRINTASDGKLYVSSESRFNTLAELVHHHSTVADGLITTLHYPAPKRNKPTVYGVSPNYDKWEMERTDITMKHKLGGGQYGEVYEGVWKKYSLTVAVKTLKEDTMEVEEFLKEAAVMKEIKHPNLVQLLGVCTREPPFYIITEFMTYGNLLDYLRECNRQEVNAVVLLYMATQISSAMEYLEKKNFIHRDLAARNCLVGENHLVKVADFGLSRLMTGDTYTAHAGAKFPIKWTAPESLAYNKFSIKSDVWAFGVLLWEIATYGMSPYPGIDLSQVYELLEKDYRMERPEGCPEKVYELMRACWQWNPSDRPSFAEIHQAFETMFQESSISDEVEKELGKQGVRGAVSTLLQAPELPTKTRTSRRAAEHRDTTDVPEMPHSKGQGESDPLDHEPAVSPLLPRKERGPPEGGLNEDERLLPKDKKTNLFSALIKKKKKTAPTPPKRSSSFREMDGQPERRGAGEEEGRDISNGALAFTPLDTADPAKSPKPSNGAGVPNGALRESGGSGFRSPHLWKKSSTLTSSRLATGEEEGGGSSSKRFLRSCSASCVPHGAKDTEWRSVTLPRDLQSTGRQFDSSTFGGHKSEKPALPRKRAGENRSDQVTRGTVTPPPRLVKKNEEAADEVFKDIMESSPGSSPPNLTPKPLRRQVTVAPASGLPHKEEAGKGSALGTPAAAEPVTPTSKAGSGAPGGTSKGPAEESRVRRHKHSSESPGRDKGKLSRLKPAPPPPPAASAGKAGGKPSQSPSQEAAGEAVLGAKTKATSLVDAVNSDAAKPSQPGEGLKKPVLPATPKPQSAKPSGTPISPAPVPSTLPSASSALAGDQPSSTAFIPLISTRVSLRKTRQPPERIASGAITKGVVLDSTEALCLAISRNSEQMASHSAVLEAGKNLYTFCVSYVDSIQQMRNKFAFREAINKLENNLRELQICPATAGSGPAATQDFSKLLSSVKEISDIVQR

[4] = biological target: Proto-oncogene tyrosine-protein kinase Src (Homo sapiens, UniProt P12931); experiment: Inhibitory activity against Src
Chain of Proto-oncogene tyrosine-protein kinase Src (P12931 2-536 limits assumed): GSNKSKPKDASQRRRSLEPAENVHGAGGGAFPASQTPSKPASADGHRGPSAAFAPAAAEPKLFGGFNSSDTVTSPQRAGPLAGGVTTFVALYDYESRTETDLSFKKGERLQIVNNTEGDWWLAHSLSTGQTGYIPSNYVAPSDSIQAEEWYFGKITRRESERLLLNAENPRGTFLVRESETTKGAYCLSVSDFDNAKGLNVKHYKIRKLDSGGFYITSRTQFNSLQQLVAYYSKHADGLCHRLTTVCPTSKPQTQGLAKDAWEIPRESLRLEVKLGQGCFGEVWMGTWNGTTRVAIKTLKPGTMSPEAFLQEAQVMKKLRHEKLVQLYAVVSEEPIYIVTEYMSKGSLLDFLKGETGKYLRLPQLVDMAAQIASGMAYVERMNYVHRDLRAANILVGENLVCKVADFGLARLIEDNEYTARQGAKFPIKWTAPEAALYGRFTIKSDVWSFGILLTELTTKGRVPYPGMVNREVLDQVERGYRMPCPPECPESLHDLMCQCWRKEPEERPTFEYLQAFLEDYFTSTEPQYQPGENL

Bcr/Abl fusion protein = Bcr/Abl fusion protein (Homo sapiens, UniProt P00519); experiment: Antiproliferative activity against human BCR-ABL positive chronic myeloid leukemia K562 cell line; type: functional, cell-based
Chain of Bcr/Abl fusion protein (P00519 whole entry, the tested form may be a part): as the sequence (P00519 whole entry) above
Chain of Bcr/Abl fusion protein (P11274 whole entry, further chain, the tested form may be a part): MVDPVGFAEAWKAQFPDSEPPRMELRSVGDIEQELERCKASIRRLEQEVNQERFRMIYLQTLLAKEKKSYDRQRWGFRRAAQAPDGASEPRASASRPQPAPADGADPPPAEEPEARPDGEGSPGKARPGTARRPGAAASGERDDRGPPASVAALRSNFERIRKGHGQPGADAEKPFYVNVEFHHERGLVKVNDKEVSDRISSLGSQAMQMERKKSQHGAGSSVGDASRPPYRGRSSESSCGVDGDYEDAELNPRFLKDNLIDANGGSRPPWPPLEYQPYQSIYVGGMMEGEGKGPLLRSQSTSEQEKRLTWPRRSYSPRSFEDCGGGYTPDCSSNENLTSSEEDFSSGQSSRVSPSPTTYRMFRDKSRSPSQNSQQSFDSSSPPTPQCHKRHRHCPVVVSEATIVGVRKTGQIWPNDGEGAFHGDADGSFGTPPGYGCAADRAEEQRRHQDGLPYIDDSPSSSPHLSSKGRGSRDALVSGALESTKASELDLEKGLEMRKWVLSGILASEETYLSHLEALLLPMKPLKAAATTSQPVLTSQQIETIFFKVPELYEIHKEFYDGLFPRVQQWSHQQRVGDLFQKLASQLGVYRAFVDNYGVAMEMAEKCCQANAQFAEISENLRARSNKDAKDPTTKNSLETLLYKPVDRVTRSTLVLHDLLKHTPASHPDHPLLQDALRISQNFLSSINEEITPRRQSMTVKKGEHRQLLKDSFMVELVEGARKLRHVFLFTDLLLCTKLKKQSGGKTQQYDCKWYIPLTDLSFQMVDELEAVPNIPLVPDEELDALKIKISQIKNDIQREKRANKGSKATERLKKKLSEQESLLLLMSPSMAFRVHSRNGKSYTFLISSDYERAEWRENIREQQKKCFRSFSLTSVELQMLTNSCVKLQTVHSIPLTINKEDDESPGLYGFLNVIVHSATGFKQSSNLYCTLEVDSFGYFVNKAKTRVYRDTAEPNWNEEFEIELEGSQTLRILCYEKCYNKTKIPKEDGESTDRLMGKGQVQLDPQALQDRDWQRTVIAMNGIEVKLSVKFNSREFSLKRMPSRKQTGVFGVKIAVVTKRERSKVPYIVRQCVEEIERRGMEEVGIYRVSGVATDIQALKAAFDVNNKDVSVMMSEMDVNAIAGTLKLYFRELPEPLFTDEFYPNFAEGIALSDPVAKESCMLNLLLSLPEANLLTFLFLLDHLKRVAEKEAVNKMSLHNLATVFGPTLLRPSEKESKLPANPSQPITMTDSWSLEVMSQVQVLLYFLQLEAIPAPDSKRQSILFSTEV

[5] = biological target: Insulin-like growth factor 1 receptor (Homo sapiens, UniProt P08069); experiment: Inhibitory activity against IGF1R

Compound: CN1CCN(Cc2ccc(NC(=O)c3cc(-c4ccncc4)cnc3O)cc2)CC1
IC50 [1]: 19.5 µM | IC50 (Insulin receptor): > 40 µM

Compound: Cc1cc(CN2CCN(C)CC2)ccc1NC(=O)c1cc(-c2ccc3c(c2)OCO3)cnc1O
IC50 [1]: 14.5 µM | IC50 (Insulin receptor): > 40 µM

Compound: CN1CCN(Cc2ccc(NC(=O)c3cc(-c4ccc5c(c4)OCO5)cnc3Cl)cc2)CC1
IC50 [1]: 26.8 µM | IC50 (Insulin receptor): 27.3 µM

Compound: CN1CCN(Cc2ccc(NC(=O)c3cc(-c4ccc5c(c4)OCO5)cn(C)c3=O)cc2)CC1
IC50 [1]: > 40 µM | IC50 (Insulin receptor): > 40 µM

Compound: COc1cc(CN2CCN(C)CC2)ccc1NC(=O)c1cc(-c2ccc3c(c2)OCO3)cnc1O
IC50 [1]: 13.8 µM | IC50 (Insulin receptor): > 40 µM

Compound: COc1ncc(-c2ccc3c(c2)OCO3)cc1C(=O)Nc1ccc(CN2CCN(C)CC2)cc1
IC50 [1]: 20.3 µM | IC50 (Insulin receptor): > 40 µM

Compound: CN1CCN(c2ccc(NC(=O)c3cc(-c4ccc5c(c4)OCO5)c[nH]c3=O)cc2)CC1
IC50 [2]: 5 µM | IC50 [3]: > 20 µM | IC50 [4]: > 20 µM | IC50 (Bcr/Abl fusion protein): 3.8 µM

More lines, main results first:

IC50 [1]: 0.4 µM | Ki [1]: 0.2 µM | IC50 (Jurkat): 4.7 µM | IC50 [2]: 4 µM | IC50 [3]: > 20 µM | IC50 [4]: > 20 µM | IC50 (Bcr/Abl fusion protein): 9.5 µM
Compound: CN1CCN(CCc2ccc(NC(=O)c3cc(-c4ccc5c(c4)OCO5)cnc3O)cc2)CC1
IC50 (BaF3): 18 µM

IC50 [1]: 3.8 µM | IC50 (Insulin receptor): 16 µM
Compound: Cc1nc2cc(-c3cnc(O)c(C(=O)Nc4ccc(CN5CCN(C)CC5)cc4)c3)ccc2s1

IC50 [1]: 3.7 µM | IC50 (Insulin receptor): 32.5 µM
Compound: CN1CCN(Cc2ccc(N(C)C(=O)c3cc(-c4ccc5c(c4)OCO5)cnc3O)cc2)CC1

IC50 [1]: 5.5 µM | IC50 (Insulin receptor): 7 µM
Compound: CN1CCN(Cc2ccc(NC(=O)c3cc(-c4ccc5nccnc5c4)c[nH]c3=O)cc2)CC1

IC50 [1]: 7.5 µM | IC50 (Insulin receptor): 33.5 µM
Compound: COc1cc(-c2c[nH]c(=O)c(C(=O)Nc3ccc(CN4CCN(C)CC4)cc3)c2)cc(OC)c1OC

IC50 [1]: 3 µM | IC50 (Insulin receptor): 13.8 µM
Compound: COc1ccc(-c2c[nH]c(=O)c(C(=O)Nc3ccc(CN4CCN(C)CC4)cc3)c2)cn1

IC50 [1]: 0.9 µM | Ki [1]: 0.5 µM | IC50 [5]: > 20 µM | IC50 (Jurkat): 9.2 µM | IC50 [2]: > 20 µM | IC50 [3]: > 20 µM | IC50 [4]: > 20 µM | IC50 (Bcr/Abl fusion protein): 12.9 µM
Compound: CN1CCN(Cc2ccc(NC(=O)c3cc(-c4ccc5c(c4)OCO5)cnc3O)cc2)CC1
IC50 (BaF3): > 25 µM

IC50 [1]: 1.3 µM | Ki [1]: 1.1 µM | IC50 (Insulin receptor): 10.1 µM | Ki (Insulin receptor): 9 µM | IC50 [5]: > 20 µM | IC50 (Jurkat): 9.3 µM | IC50 [2]: > 20 µM | IC50 [3]: > 20 µM | IC50 [4]: > 20 µM | IC50 (Bcr/Abl fusion protein): 14.6 µM
Compound: CN1CCN(CCCc2ccc(NC(=O)c3cc(-c4ccc5c(c4)OCO5)cnc3O)cc2)CC1
IC50 (BaF3): 16.2 µM
